Series [1] concerns the target T1, synthetic D4 receptor (Homo sapiens, UniProt P21917, DEL265-296).
T1 sequence (P21917 with tags, fused parts or gaps DEL271-302): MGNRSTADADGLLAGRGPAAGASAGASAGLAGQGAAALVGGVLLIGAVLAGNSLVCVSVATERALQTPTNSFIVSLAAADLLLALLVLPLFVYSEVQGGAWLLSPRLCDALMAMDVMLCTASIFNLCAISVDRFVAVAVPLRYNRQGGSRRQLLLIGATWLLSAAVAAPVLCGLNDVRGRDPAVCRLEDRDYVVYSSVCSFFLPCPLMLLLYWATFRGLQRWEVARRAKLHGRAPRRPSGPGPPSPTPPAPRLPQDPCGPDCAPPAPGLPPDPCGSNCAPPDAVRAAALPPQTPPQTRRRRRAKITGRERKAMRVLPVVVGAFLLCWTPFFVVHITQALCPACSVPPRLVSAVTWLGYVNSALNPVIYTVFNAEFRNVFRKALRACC
Nature of the series: (3H)spiperone radioligand binding, membranes of HEK293 cells expressing synthetic D4 receptor (line D4-24). Further details: expressed in transfected cells; host or cells: HEK293 cells (EBV-based vector pCEP4), line D4-24. As for the experimental part: Each point is the mean of duplicates with non-specific binding subtracted.
(§1) LacI synthetic D4 transfected cells were grown in the presence of 100 μM IPTG for 48 hours prior to harvest. Cells grown in 100 mm dishes were rinsed once with 5 mls of ice cold Ca^2+ /Mg^2+ free PBS and scraped into 5 mls of the same buffer. Cells were pelleted (500×g, 5 minutes), and resuspended in 25 mM Tris, 5 mM EDTA, 5 mM EGTA, pH 7.5 (TEE), and frozen in liquid nitrogen. After thawing, the cells were homogenized and centrifuged at 1,000×g to remove nuclei and unbroken cells. The supernatant was centrifuged at 20,000×g, the membrane pellet was washed once with TEE, resuspended in binding buffer, and frozen in liquid nitrogen. Membrane aliquots were stored at -70° C.
(§2) Incubations were for 1 hour at 30° C. Assays were stopped by filtration through Whatman GF/B filters followed by 2×10 ml washes with ice cold 50 mM Tris, pH 7.5. The filters were counted by liquid scintillation spectroscopy.

For series [2], the target named is T1, synthetic D4 receptor. Nature of the series: (3H)spiperone radioligand binding, membranes of LacI (CHO) cells expressing synthetic D4 receptor (line D4-19). Further details: expressed in transfected cells. To be noted: Scatchard transformation of saturation binding; line D4-19, IPTG induced. As for the experimental part: as §1, §2
A further series concerns schizophrenics. As to conditions: unlike other antipsychotic drugs; Casey (1989); cited from earlier work.
The next series has as its system D4 receptors. As to conditions: CHO cells expressing D4 receptors.

Experimental for D4 receptors: AMP accumulation was measured in intact D4-19 cells plated at a density of 15,000 cells/well in a 24 well plate 48 hours prior to the experiment. The cells were incubated in serum free medium 1 hour prior to the experiment. Fresh medium (0.5 ml) containing 100 μM forskolin, 100 μM IBMX and varying concentrations of drugs were added to each well and cAMP was allowed to accumulate for 15 minutes at 30° C. The reactions were terminated by the removal of the medium and the addition of 100 μl cold 7.5% (TCA) trichloroacetic acid. The samples were diluted by the addition of 1.0 ml 50 mM sodium acetate, pH 6.2 and aliquots were assayed by RIA using Biomedical Technologies Incorporated cAMP RIA kit.
cAMP accumulation was measured in forskolin stimulated cells as described in methods. Dopamine (10 μM) was added to 3 wells (DA). […] The bars are the averages of the three wells expressed as the percentage of the forskolin response.

For the compound `O=C(CCCN1CCC2(CC1)C(=O)NCN2c1ccccc1)c1ccc(F)cc1` [(^3 H)-spiperone], the “receptor expression over passages (3H-spiperone binding)” value on synthetic D4 receptor [1] (D4-24 cells, 540 pM 3H-spiperone, up to at least 12 passages over 10 weeks (FIG. 5)) is reported as “remains constant”. For the same compound, the Bmax on synthetic D4 receptor [1] (Scatchard analysis of saturation binding, line D4-24 (FIG. 4)) worked out at 736 fmol/mg protein; on synthetic D4 receptor [2], 260 fmol/mg protein.
With `CN1CCN(C2=Nc3cc(Cl)ccc3Nc3ccccc32)CC1` [clozapine], the tardive dyskinesia result in the series on schizophrenics is “does not cause tardive dyskinesia”. The “antagonism of dopamine inhibition of cAMP accumulation” value in the series with D4 receptors (10 μM clozapine with 10 μM dopamine (FIG. 6)) was “Antagonism”.
As for `NCCc1ccc(O)c(O)c1` [dopamine], the “inhibition of cAMP accumulation” value in the series with D4 receptors (10 μM dopamine, forskolin stimulated (FIG. 6)) is recorded as “Inhibition of cAMP accumulation”.

(Values after patent publication US5468615A, “Binding assay employing a synthetic gene for D4 dopamine receptors” (The Upjohn Company, priority 1993, dated 1995).)
